Assay results from ChEMBL document CHEMBL1201862, “PubChem BioAssay data set” (2004).
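Compound exposure: 48 hours, 5 concentrations, 96-well plates. GI50: concentration for 50% inhibition of growth.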 The source made the active and inactive calls. Rule as the data show it: active = GI50 up to about 1.1 µM and inactive = higher.

What was measured:
Assay in all cases: DTP human tumour cell line panel, 48 h
SNB-75 = tested on: SNB-75
SW-620 = tested on: SW-620
SK-MEL-2 = tested on: SK-MEL-2
UO-31 = tested on: UO-31
HOP-92 = tested on: HOP-92
SF-539 = tested on: SF-539
HT-29 = tested on: HT-29
HCT-116 = tested on: HCT-116
UACC-257 = tested on: UACC-257
SF-268 = tested on: SF-268
SK-OV-3 = tested on: SK-OV-3
SNB-19 = tested on: SNB-19
IGROV-1 = tested on: IGROV-1
M14 = tested on: M14
TK-10 = tested on: TK-10
LOX IMVI = tested on: LOX IMVI
SK-MEL-5 = tested on: SK-MEL-5
MCF7 = tested on: MCF7
CAKI-1 = tested on: CAKI-1
SN12C = tested on: SN12C
U-251 = tested on: U-251
COLO 205 = tested on: COLO 205
786-0 = tested on: 786-0
OVCAR-8 = tested on: OVCAR-8
MDA-N = tested on: MDA-N
DU-145 = tested on: DU-145
SR = tested on: SR
SF-295 = tested on: SF-295
Malme-3M = tested on: Malme-3M
A549 = tested on: A549
OVCAR-3 = tested on: OVCAR-3
HOP-62 = tested on: HOP-62
NCI-H460 = tested on: NCI-H460
ACHN = tested on: ACHN
HL-60 = tested on: HL-60
HCC 2998 = tested on: HCC 2998
NCI-H23 = tested on: NCI-H23
OVCAR-4 = tested on: OVCAR-4
RPMI-8226 = tested on: RPMI-8226
MDA-MB-231 = tested on: MDA-MB-231
A498 = tested on: A498
MOLT-4 = tested on: MOLT-4
OVCAR-5 = tested on: OVCAR-5
SK-MEL-28 = tested on: SK-MEL-28
NCI-H522 = tested on: NCI-H522
NCI-H226 = tested on: NCI-H226
HCT-15 = tested on: HCT-15
PC-3 = tested on: PC-3
RXF 393 = tested on: RXF 393
MDA-MB-435 = tested on: MDA-MB-435
EKVX = tested on: EKVX
BT-549 = tested on: BT-549
KM12 = tested on: KM12
K562 = tested on: K562
T47D = tested on: T47D
UACC-62 = tested on: UACC-62
CCRF-CEM = tested on: CCRF-CEM
NCI/ADR-RES = tested on: NCI/ADR-RES

## CCOP(=O)(OCC)C1=C(c2ccccc2)OC(N)=C(C#N)C1c1ccc(Cl)cc1 (stereo not drawn)
SNB-75
  GI50: > 100 µM (inactive)
SW-620
  GI50: > 100 µM (inactive)
SK-MEL-2
  GI50: > 100 µM (inactive)
UO-31
  GI50: > 100 µM (inactive)
HOP-92
  GI50: > 100 µM (inactive)
SF-539
  GI50: 66.1 µM (inactive)
HT-29
  GI50: > 100 µM (inactive)
HCT-116
  GI50: > 100 µM (inactive)
UACC-257
  GI50: > 100 µM (inactive)
SF-268
  GI50: 38.1 µM (inactive)
SK-OV-3
  GI50: > 100 µM (inactive)
SNB-19
  GI50: > 100 µM (inactive)
IGROV-1
  GI50: > 100 µM (inactive)
M14
  GI50: > 100 µM (inactive)
TK-10
  GI50: > 100 µM (inactive)
LOX IMVI
  GI50: > 100 µM (inactive)
SK-MEL-5
  GI50: > 100 µM (inactive)
MCF7
  GI50: > 100 µM (inactive)
CAKI-1
  GI50: > 100 µM (inactive)
SN12C
  GI50: > 100 µM (inactive)
U-251
  GI50: > 100 µM (inactive)
COLO 205
  GI50: > 100 µM (inactive)
786-0
  GI50: > 100 µM (inactive)
OVCAR-8
  GI50: > 100 µM (inactive)
MDA-N
  GI50: > 100 µM (inactive)
DU-145
  GI50: > 100 µM (inactive)
SR
  GI50: > 100 µM (inactive)
SF-295
  GI50: > 100 µM (inactive)
Malme-3M
  GI50: > 100 µM (inactive)
A549
  GI50: > 100 µM (inactive)
OVCAR-3
  GI50: > 100 µM (inactive)
HOP-62
  GI50: > 100 µM (inactive)
NCI-H460
  GI50: > 100 µM (inactive)
ACHN
  GI50: > 100 µM (inactive)
HL-60
  GI50: > 100 µM (inactive)
HCC 2998
  GI50: 79.3 µM (inactive)
NCI-H23
  GI50: > 100 µM (inactive)
OVCAR-4
  GI50: > 100 µM (inactive)
RPMI-8226
  GI50: > 100 µM (inactive)
MDA-MB-231
  GI50: > 100 µM (inactive)
A498
  GI50: > 100 µM (inactive)
MOLT-4
  GI50: > 100 µM (inactive)
OVCAR-5
  GI50: > 100 µM (inactive)
SK-MEL-28
  GI50: > 100 µM (inactive)
NCI-H522
  GI50: 67.9 µM (inactive)
NCI-H226
  GI50: > 100 µM (inactive)
HCT-15
  GI50: > 100 µM
PC-3
  GI50: > 100 µM (inactive)
RXF 393
  GI50: > 100 µM (inactive)
MDA-MB-435
  GI50: > 100 µM (inactive)
EKVX
  GI50: > 100 µM (inactive)
BT-549
  GI50: > 100 µM (inactive)
KM12
  GI50: > 100 µM (inactive)
K562
  GI50: > 100 µM (inactive)
T47D
  GI50: > 100 µM (inactive)
UACC-62
  GI50: > 100 µM (inactive)
CCRF-CEM
  GI50: 30.1 µM (inactive)
NCI/ADR-RES
  GI50: > 100 µM (inactive)
